The values that follow come from PubChem BioAssay (NCI).

Among the test systems are COLO 205 colon; SF-539 CNS; OVCAR-8 ovarian; NCI-H522 lung; ACHN renal; K-562 leukemia; SK-OV-3 ovarian; U251 CNS; A498 renal; UACC-257 melanoma.
What all share (test): DTP human tumour cell line panel, 48 h

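Five compound concentrations were applied to cells in 96-well plates for 48 hours; endpoints were derived by simple linear interpolation of the resulting dose-response curve. GI50: concentration for 50% inhibition of growth. TGI is the concentration that stops growth completely.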

`COc1cc(O)c2c(=O)c(OC)c(-c3ccc(OC)c(OC)c3)oc2c1.[Zn+2]`: the TGI (in general, the concentration at which net growth stops) with COLO 205 colon was above 100 µM; in the experiment with SF-539 CNS, above 100 µM; in the experiment with OVCAR-8 ovarian it was above 100 µM; with NCI-H522 lung, 24.1 µM; in the experiment with ACHN renal, above 100 µM; in the experiment with K-562 leukemia it was above 100 µM. In the experiment on SK-OV-3 ovarian, this compound returned a total growth inhibition concentration (TGI) of 47.2 µM. Moreover, the GI50 (as a rule, the concentration at which growth is held to half of that of the control) is 13.2 µM in the experiment on OVCAR-8 ovarian, 35.4 µM with ACHN renal and 41.6 µM in the experiment on K-562 leukemia.
With `NC(=S)N/N=C1\CC(c2ccccc2)Nc2ccccc21` (centres undefined), the total growth inhibition concentration (TGI) in the experiment with COLO 205 colon is 73.3 µM; with SF-539 CNS, above 100 µM; in the experiment with OVCAR-8 ovarian, above 100 µM; in the experiment on NCI-H522 lung, 99.2 µM; with U251 CNS it was above 100 µM; with ACHN renal it was above 100 µM. Besides, the TGI with K-562 leukemia was above 100 µM; in the experiment on A498 renal, 68.2 µM; in the experiment with SK-OV-3 ovarian, above 100 µM.
For `CC(=O)Oc1cc(/C=C/c2ccc(O)cc2)cc(OC(C)=O)c1`, the TGI in the experiment on COLO 205 colon is above 100 µM; with SF-539 CNS, 41.5 µM; in the experiment with UACC-257 melanoma, above 100 µM; in the experiment on OVCAR-8 ovarian, above 100 µM; with NCI-H522 lung, above 100 µM; in the experiment on U251 CNS it was above 100 µM. In addition, the concentration for total growth inhibition (TGI) with ACHN renal was above 100 µM; with K-562 leukemia, above 100 µM; in the experiment with A498 renal it was 85.5 µM; in the experiment on SK-OV-3 ovarian it was above 100 µM.
As to `COc1ccc(OC)c([N+](=O)[O-])c1-c1nc2sc(C)c(C)n2c1/C=N/N=C(N)N`, the TGI in the experiment on COLO 205 colon, in the experiment on SF-539 CNS, in the experiment with UACC-257 melanoma, with OVCAR-8 ovarian, in the experiment on NCI-H522 lung and in the experiment with U251 CNS was above 100 µM in each case. The TGI in the experiment with ACHN renal, with K-562 leukemia and with A498 renal was above 100 µM each time.
As for `CC(=O)C(N=NC1CCC(S(=O)(=O)NB2N=CS2)CC1)C(=O)Nc1ccccc1C` (centres undefined), the concentration for total growth inhibition (TGI) in the experiment with COLO 205 colon came out at 37.2 µM; in the experiment with SF-539 CNS, 32.4 µM; in the experiment on UACC-257 melanoma it was 45.1 µM; in the experiment on OVCAR-8 ovarian, 34.1 µM; in the experiment with NCI-H522 lung, 29.6 µM; in the experiment with U251 CNS, 26.6 µM. Moreover, the TGI in the experiment on ACHN renal was 24.6 µM; with K-562 leukemia it was above 100 µM; in the experiment on A498 renal, 33.6 µM; in the experiment on SK-OV-3 ovarian it was 50.6 µM.
Consider `C[N+]1(C)C/C(=C\c2ccc(O)cc2)C(=O)/C(=C/c2ccc(O)cc2)C1`, for which the TGI with COLO 205 colon, in the experiment with SF-539 CNS, in the experiment on UACC-257 melanoma, in the experiment with OVCAR-8 ovarian, with NCI-H522 lung and in the experiment with U251 CNS was above 100 µM in each case. In addition, the concentration for total growth inhibition (TGI) with ACHN renal, with A498 renal and in the experiment with SK-OV-3 ovarian was above 100 µM each time.
As to `N=C(N)SCCN1CCCCC1`, the concentration for total growth inhibition (TGI) in the experiment with COLO 205 colon is above 100 µM; in the experiment on SF-539 CNS, 84.1 µM; with UACC-257 melanoma, 41.6 µM; in the experiment with OVCAR-8 ovarian it was above 100 µM; with NCI-H522 lung it was 24.3 µM; with U251 CNS it was 44 µM. Further, the TGI was above 100 µM in the experiment with ACHN renal, 62.1 µM with K-562 leukemia, above 100 µM in the experiment with A498 renal and above 100 µM in the experiment on SK-OV-3 ovarian.
As to `Nc1ccc(S(=O)(=O)NCCS(=O)(=O)O)cc1`, the concentration for total growth inhibition (TGI) in the experiment on UACC-257 melanoma, in the experiment with OVCAR-8 ovarian, in the experiment with NCI-H522 lung, with U251 CNS, in the experiment with ACHN renal and in the experiment on K-562 leukemia was above 100 µM in each case. In addition, in the experiment on A498 renal, the TGI was above 100 µM.
With `C[N+]1(c2ccccc2)C=C(c2ccccc2)SC1=S` (centres undefined), the TGI in the experiment with COLO 205 colon, with SF-539 CNS, in the experiment with UACC-257 melanoma, in the experiment with OVCAR-8 ovarian, in the experiment with NCI-H522 lung and in the experiment with U251 CNS was above 100 µM in each case. For the same compound, the concentration for total growth inhibition (TGI) in the experiment with ACHN renal is above 100 µM; in the experiment on K-562 leukemia, above 100 µM; with A498 renal it was 46.7 µM.
On to `Cc1cccc(/C=C2/C(=O)Nc3ccccc32)n1`, for which the TGI in the experiment on COLO 205 colon was above 57 µM; in the experiment with SF-539 CNS, 51.4 µM; in the experiment with UACC-257 melanoma, 30.1 µM; in the experiment on OVCAR-8 ovarian, above 80.3 µM; in the experiment on NCI-H522 lung it was 34.7 µM; in the experiment on U251 CNS, above 65.9 µM. Further, the total growth inhibition concentration (TGI) was above 82.1 µM in the experiment on ACHN renal, 40.4 µM in the experiment on K-562 leukemia, 46.9 µM with A498 renal and 52 µM in the experiment with SK-OV-3 ovarian.
For `O=C1O/C(=C\C=C\CO)C=C1/C=C/CO`, the TGI with COLO 205 colon is 5.16 µM; in the experiment on SF-539 CNS, 55 µM; in the experiment with OVCAR-8 ovarian it was 38.6 µM; with NCI-H522 lung, 22.5 µM; in the experiment on U251 CNS it was above 100 µM; in the experiment on ACHN renal, 69.5 µM. In addition, the total growth inhibition concentration (TGI) with K-562 leukemia and in the experiment with SK-OV-3 ovarian was above 100 µM each time.
With `Cc1ncc(COP(=O)(O)O)c(C)c1O`, the concentration for total growth inhibition (TGI) in the experiment on UACC-257 melanoma, with OVCAR-8 ovarian, in the experiment on NCI-H522 lung, in the experiment with U251 CNS, with ACHN renal and in the experiment on K-562 leukemia was above 100 µM in each case. Also, in the experiment with A498 renal, the concentration for total growth inhibition (TGI) is above 100 µM.
As to `CCOc1ccc(N=Nc2ccc(-c3ccc(N=Nc4c(O)ccc5cc(S(=O)(=O)O)cc(S(=O)(=O)O)c45)cc3)cc2)cc1`, the TGI in the experiment with COLO 205 colon, in the experiment on SF-539 CNS, with UACC-257 melanoma, with OVCAR-8 ovarian, in the experiment with NCI-H522 lung and in the experiment with U251 CNS was above 100 µM in each case. Further, the TGI in the experiment on ACHN renal, in the experiment with K-562 leukemia and with SK-OV-3 ovarian was above 100 µM each time.
With `CCCCCCCCc1ccc(CCC(N)(CO)CO)cc1`, the GI50 in the experiment on COLO 205 colon was 1.58 µM; in the experiment on SF-539 CNS, 1.85 µM; with UACC-257 melanoma, 2.23 µM; with U251 CNS it was 1.8 µM; in the experiment with ACHN renal, 1.61 µM; with K-562 leukemia, 1.82 µM. The results for the GI50 in the experiment on A498 renal and with SK-OV-3 ovarian were 3.34 µM and 1.61 µM, respectively. The total growth inhibition concentration (TGI) is 2.92 µM in the experiment with COLO 205 colon; 3.39 µM with SF-539 CNS; 5.01 µM with UACC-257 melanoma; 3.32 µM in the experiment with U251 CNS; 2.97 µM with ACHN renal; 4.33 µM in the experiment with K-562 leukemia. The TGI stood at 22.6 µM with A498 renal and 3.09 µM with SK-OV-3 ovarian.
With `C=C(C[C@@H](O)[C@H](C)NC(=O)OCc1ccccc1)C(=O)OC(C)(C)C`, the total growth inhibition concentration (TGI) with COLO 205 colon, in the experiment with SF-539 CNS, in the experiment on UACC-257 melanoma, in the experiment on OVCAR-8 ovarian, in the experiment on NCI-H522 lung and in the experiment with U251 CNS was above 100 µM in each case. Also, the TGI in the experiment with ACHN renal, in the experiment on K-562 leukemia, with A498 renal and in the experiment with SK-OV-3 ovarian was above 100 µM each time.
For the compound `O=S(=O)([O-])[O-].[Fe+2].[OH2+]c1c(Cl)cc(Cl)cc1/C=N/Nc1ccccn1`, the total growth inhibition concentration (TGI) came out at 3.47 µM in the experiment with COLO 205 colon; 1.27 µM with SF-539 CNS; 2.63 µM with UACC-257 melanoma; 2.94 µM with OVCAR-8 ovarian; 1.92 µM in the experiment on NCI-H522 lung; 2.74 µM in the experiment on U251 CNS. Besides, the TGI in the experiment with ACHN renal was found to be 1.12 µM; in the experiment on K-562 leukemia, 3.26 µM; with A498 renal, 4.5 µM; with SK-OV-3 ovarian, 3.7 µM. Also, the GI50 with SK-OV-3 ovarian is 1.86 µM.
